From patent US7649008B2, “Crystal of benzimidazole derivative and process for producing the same” (priority 2003, dated 2010)
Entries after “also recorded” stand apart in the source; their conditions may differ.

Assays:
[1] = Storage stability of the crystal forms; format: physicochemical; details: qualitative
[2] = Absorptivity of the crystal forms; details: qualitative
[3] = Solubility of the crystal forms in the solvent; format: physicochemical; details: qualitative, solvent not given
[4] = Relative stability of the crystal forms; format: physicochemical; details: four kinds of crystals excluding the solvate

| Structure (SMILES) | storage stability [1] | absorptivity [2] | solubility in the solvent ([3]; hydrate) | solubility in the solvent [3] | stability (rank order of crystal forms) [4] |
| --- | --- | --- | --- | --- | --- |
| Cc1cccc2scc(Cn3c(SCCCC(=O)O)nc4ccccc43)c12 [crystal A, 4-(1-((4-methylbenzothiophen-3-yl)methyl)benzimidazol-2-ylthio)butanoic acid] | excellent | comparatively excellent |  | becomes higher in this order; also recorded: excellent | becomes lower in the order of crystal D, crystal B, crystal A and crystal E |
| Cc1cccc2scc(Cn3c(SCCCC(=O)O)nc4ccccc43)c12 [crystal B, 4-(1-((4-methylbenzothiophen-3-yl)methyl)benzimidazol-2-ylthio)butanoic acid] | excellent |  |  | becomes higher in this order | becomes lower in the order of crystal D, crystal B, crystal A and crystal E |
| Cc1cccc2scc(Cn3c(SCCCC(=O)O)nc4ccccc43)c12 [crystal D, 4-(1-((4-methylbenzothiophen-3-yl)methyl)benzimidazol-2-ylthio)butanoic acid] | excellent |  |  | becomes higher in this order; also recorded: drastically poor | becomes lower in the order of crystal D, crystal B, crystal A and crystal E |

More lines, main results first:

| storage stability [1] | absorptivity [2] | solubility in the solvent ([3]; hydrate) | Structure (SMILES) | solubility in the solvent [3] | stability (rank order of crystal forms) [4] |
| --- | --- | --- | --- | --- | --- |
| excellent | comparatively excellent |  | Cc1cccc2scc(Cn3c(SCCCC(=O)O)nc4ccccc43)c12 [crystal E, 4-(1-((4-methylbenzothiophen-3-yl)methyl)benzimidazol-2-ylthio)butanoic acid] | becomes higher in this order; also recorded: excellent | becomes lower in the order of crystal D, crystal B, crystal A and crystal E |
| excellent | comparatively excellent | excellent | Cc1cccc2scc(Cn3c(SCCCC(=O)O)nc4ccccc43)c12 [hydrate crystal, 4-(1-((4-methylbenzothiophen-3-yl)methyl)benzimidazol-2-ylthio)butanoic acid hydrate] |  |  |
